Data reported in patent US20240158439A1, “INHIBITORS OF ANTIGEN PRESENTATION BY MHC CLASS II HLA-DRB1*15:01 MOLECULES WITH ENHANCED METABOLIC STABILITY” (Provid Pharmaceuticals Inc., priority 2021, published 2024).
Several values for one entry are separate records, joined by “and”; a condition that tells them apart may be missing. Equal values may be shown once. Read-outs that look alike come from different tables or passages of the source. Blank lines part the entries; values can stand above or below the compound they belong to. Where a SMILES comes first, the peptide text is derived from it. [ ]: non-standard residue; d: D form. The star is where a group is joined. NH(CH2CH2O)4Me = COCCOCCOCCOCCN*; Tic = O=C(O)[C@@H]1Cc2ccccc2CN1; Chg = N[C@H](C(=O)O)C1CCCCC1; NHCH2CH2OMe = COCCN*

What was measured:
[1] = target: T1, HLA-DRB1*15:01 (Homo sapiens, UniProt P01903+P01911); assay: HLA II binding assay (competitive, biotinylated reference peptide)
T1 construct: endogenous in cells; host or cells: EBV homozygous cell lines (human)

[2] = Mouse pharmacokinetics/metabolism study; format: in vivo, C57BL/6J mice
Procedure: The pharmacokinetics/metabolism study was performed in non-fasted C57BL/6J mice. Dose formulation was prepared on the day of treatment, using 10% v/v DMSO solution and 90% sterile water for injection as vehicle. Blood samples were collected at 0.25, 0.5, 1, 2, 4, 6, 8, 12 and 24 hr post-dose (n=9 mice/group, staggered sampling with 3 mice/time point). At each time point, under isoflurane anesthesia approximately 70 μL of blood was collected through retro orbital plexus puncture and transferred into a pre-labeled tube. 50 μL of blood was taken from the prelabeled tube and it was added into a labelled tube containing 200 μL of acetonitrile to precipitate proteins. Immediately, blood samples were vortexed to facilitate mixing of acetonitrile with the blood. Samples were kept on dry ice at −70° C. until analysis. [table] Bioanalysis was performed using fit-for-purpose analytical method using LC-MS/MS method for the quantification of PV-267 (Parent) or PV-3212 (Parent) and PV-623 (Metabolite) in mice blood samples and the linearity range was 2 to 2500 ng/mL for PV-267 (Parent), PV-3212 (Parent) and PV-623 (metabolite). The blood pharmacokinetic parameters for PV-267 and PV-3212 were calculated by using standard non-compartmental analysis (Phoenix software, version 6.4, Pharsight Corporation, Mountain View, Calif. 94040/USA) using the sparse sampling model and linear trapezoidal with linear interpolation calculation method. Pharmacokinetic Parameters for PV-623 (metabolite) were not calculated due to insufficient blood concentrations.

[3] = system: Goodpasture antigen (α3(IV)NC1); details: Huynh et al. 2019; cited from earlier work
[4] = system: EAE in DRB1*15:01 transgenic mice; details: cited from earlier work
[5] = Pharmacokinetics of PV-267 in rats and mice
[6] = system: BC3 T cells + autologous hPBMCs from DRB1*15:01-positive MS patient; assay: Human cellular immunology assay (IFN-gamma ELISPOT); format: cell-based; details: inhibition of IFN-gamma response, FIG. 2
Procedure: After washing and blocking, autologous APCs (irradiated PBMCs) pretreated with different concentrations of the DRB1*15:01 inhibitors for 45 min were added on the plate (0.3−0.5×10^6 cells per well), followed by the addition of Ag or positive control using PHA (Sigma-Aldrich) or anti-human CD3 mAb (Bio X Cell; OKT3) along with BC3 T cells or enriched PBMC T cells (4,000-20,000 cells per well). Plates were incubated at 37° C. for 24 h, then washed and biotinylated anti-human IFN-γ mAb (Thermo Scientific; B133.5) was added at 4° C., overnight. After that, plates were incubated with Streptavidin AP (Invitrogen) and developed with BCIP/NBT Phosphatase substrate (KPL) after washing. After developing of the plates, image analysis of ELISPOT assays was performed on a Series 2 ImmunoSpot analyzer and software (CTL) as described previously (Kawamura, K., et al., (2008) J. Immunol. 181: 3202-3211).

[7] = C57BL/6J, mouse, in vivo, ip, 10 mg/kg

- IC50 ([1]; Table 2, DRB1*15:01 binding, unit inferred, nM, read-out: Avg IC50): 26 nM
- Mean Plasma Concentration 0.25 hr ([2]; acid metabolite PV-623 after PV-267 10 mg/kg IP, 0.25 hr): 169 ng/mL
- Mean Plasma Concentration 0.5 hr ([2]; acid metabolite PV-623 after PV-267 10 mg/kg IP, 0.5 hr): 65.3 ng/mL
- Mean Plasma Concentration 0.25 hr ([2]; acid metabolite PV-623 after PV-3212 10 mg/kg IP, 0.25 hr): 8.54 ng/mL
- Mean Plasma Concentration 0.5 hr ([2]; acid metabolite PV-623 after PV-3212 10 mg/kg IP, 0.5 hr): 3.57 ng/mL
Structure (SMILES): CC(=O)N[C@H](C(=O)N[C@H](C(=O)N[C@@H](CCCNC(=N)N)C(=O)N1Cc2ccccc2C[C@H]1C(=O)N[C@@H](Cc1ccccc1)C(=O)O)C1CCCCC1)C(C)C [PV-623, Ac-V-(Chg)-R-(Tic)-F—OH] (Ac-V[Chg]R[Tic]F-OH)

- IC50 ([1]; read-out: binding IC50): 2.5 nM
- ratio of metabolite PV-623 to parent at 0.25 hr ([2]; 10 mg/kg IP, 0.25 hr): 0.61 and 0.67
- ratio of metabolite PV-623 to parent at 0.5 hr ([2]; 10 mg/kg IP, 0.5 hr): 0.73
- level at 0.25 h ([2]; C57BL/6J, mouse, plasma, ip, 10 mg/kg, parent, text b45, 0.25 hr, read-out: plasma concentration at 0.25 hr): 275 ng/mL
- level at 0.5 h ([2]; C57BL/6J, mouse, plasma, ip, 10 mg/kg, parent, text b45, 0.5 hr, read-out: plasma concentration at 0.5 hr): 91.5 ng/mL
- Cmax ([2]; C57BL/6J, mouse, whole blood, single IP 10 mg/kg, observed at 0.25 hr post dose, read-out: Parent peak blood concentration): 275 ng/mL
- metabolism to the acid PV-623 ([2]; mouse PK studies): rapidly metabolized to PV-623
- Mean Plasma Concentration 0.25 hr ([2]; parent compound, 10 mg/kg IP, 0.25 hr): 275 ng/mL
- Mean Plasma Concentration 0.5 hr ([2]; parent compound, 10 mg/kg IP, 0.5 hr): 91.5 ng/mL
Structure (SMILES): CC(=O)N[C@H](C(=O)N[C@H](C(=O)N[C@@H](CCCNC(=N)N)C(=O)N1Cc2ccccc2C[C@H]1C(=O)N[C@@H](Cc1ccccc1)C(N)=O)C1CCCCC1)C(C)C [PV-267, Ac-V-(Chg)-R-(Tic)-F—NH2] (Ac-V[Chg]R[Tic]F-NH2)
- autoreactivity to the Goodpasture antigen [3]: attenuates autoreactivity to the Goodpasture antigen
- efficacy in animal models of multiple sclerosis [4]: efficacy in animal models of multiple sclerosis
- in vivo conversion to C-terminal acid PV-623 [5]: significantly converted to the C-terminal acid PV-623

Structure (SMILES): COCCOCCOCCOCCNC(=O)[C@H](Cc1ccccc1)NC(=O)[C@@H]1Cc2ccccc2CN1C(=O)[C@H](CCCNC(=N)N)NC(=O)[C@@H](NC(=O)[C@@H](NC(C)=O)C(C)C)C1CCCCC1 [PV-3213, Ac-V-(Chg)-R-(Tic)-F—NH(CH2CH2O)4CH3] (Ac-V[Chg]R[Tic]F-{NH(CH2CH2O)4Me})
- potency compared to PV-267 in human cellular assay [6]: at least as potent as the unsubstituted PV-267

- Cmax [2, 7]: 741 ng/mL
- half-life [2, 7]: 3.23 h
- level at 0.25 h [2, 7]: 741 ng/mL
- level at 0.5 h [2, 7]: 195 ng/mL
- metabolism to the acid PV-623 ([2]; mouse, in vivo): remarkably stable
- Mean Plasma Concentration 0.25 hr ([2]; mouse, in vivo, ip, 10 mg/kg): 741 ng/mL
- Mean Plasma Concentration 0.5 hr ([2]; mouse, in vivo, ip, 10 mg/kg): 195 ng/mL
Structure (SMILES): COCCNC(=O)[C@H](Cc1ccccc1)NC(=O)[C@@H]1Cc2ccccc2CN1C(=O)[C@H](CCCNC(=N)N)NC(=O)[C@@H](NC(=O)[C@@H](NC(C)=O)C(C)C)C1CCCCC1 [PV-3212, Ac-V-(Chg)-R-(Tic)-F—NH(CH2CH2O)1CH3] (Ac-V[Chg]R[Tic]F-NHCH2CH2OMe)
- potency compared to PV-267 in human cellular assay [6]: more potent than the simple amide (PV-267)
